Entries after “also recorded” stand apart in the source; their conditions may differ. Bridge positions count the residues as written; N and C are the ends. Peptide text beside a SMILES is read from it.
Columns and labels:
[1] = tested on: hNaV1.8/β3; test: Whole-cell automated patch-clamp, peak current at hNaV1.8; type: cell-based, human; settings: 10 μM; 5 min incubation; QPatch-16; holding −90 mV, 50 ms pulse to +10 mV every 20 s; 0.1% BSA; mean ± SEM
Protocol: (§1) Human Embryonic Kidney (HEK) 293 cells stably expressing human NaV1.7/β1 (SB Drug Discovery, Glasgow, UK) were cultured in Minimum Essential Medium (MEM) supplemented with 10% fetal bovine serum (FBS), 2 mM L-glutamine, and the selection antibiotics G-418 (0.6 mg/mL) and blasticidin (4 μg/mL), as recommended by the manufacturer. Chinese Hamster Ovary (CHO) cells stably expressing human NaV1.8/β3 in a tetracycline-inducible system (ChanTest, Cleveland, OH, USA) were cultured in MEM supplemented with 10% FBS and 2 mM L-glutamine. Expression of hNaV1.8 was induced by the addition of tetracycline (1 μg/mL) for 48–72 h prior to assays. HEK293 cells stably expressing rat transient receptor potential vanilloid 1 (TRPV1) were cultured in Dulbecco’s Modified Eagle Medium (DMEM) containing 10% FBS under selection with hygromycin B (100 μg/mL), generated as previously described. Cells were grown in an incubator at 37 °C with 5% CO2 and passaged every 3–4 days (at 70%–80% confluency) using TrypLE Express (Thermo Fisher Scientific, Scoresby, VIC, Australia).
(§2) Whole-cell patch-clamp experiments in NaV1.7-HEK cells and NaV1.8-CHO cells were performed on a QPatch-16 automated electrophysiology platform (Sophion Bioscience, Ballerup, Denmark) as previously described. […]
(§3) Data were plotted and analysed using GraphPad Prism, version 8.2.0. […]

[2] = target: T1, hNaV1.7/β1 (Homo sapiens, UniProt Q15858); test: Whole-cell automated patch-clamp, peak current at hNaV1.7; type: cell-based
Protocol: as §1
(§4) Whole-cell patch-clamp experiments in NaV1.7-HEK cells and NaV1.8-CHO cells were performed on a QPatch-16 automated electrophysiology platform (Sophion Bioscience, Ballerup, Denmark) as previously described. The extracellular solution contained in mM: NaCl 140, KCl 4, CaCl2 2, MgCl2 1, HEPES 10 and glucose 10; pH 7.4; osmolarity 305 mOsm. The intracellular solution contained in mM: CsF 140, EGTA/CsOH 1/5, HEPES 10 and NaCl 10; pH 7.3 with CsOH; osmolarity 320 mOsm. Concentration–response curves were acquired using a holding potential of −90 mV and a 50 ms pulse to −20 mV (for NaV1.7) or +10 mV (for NaV1.8) every 20 s (0.05 Hz). Peptides were diluted in extracellular solution with 0.1% BSA and each peptide concentration was incubated for 5 min. Peak current was normalized to buffer control. The time constant of fast inactivation (τ) was computed by fitting the current decay traces with a single exponential function using the QPatch Assay Software 5.6 (Sophion). […]
as §3

[3] = target: T2, rTRPV1 (Rattus norvegicus, UniProt O35433); test: Calcium responses in TRPV1-HEK cells (FLIPR); type: cell-based
T2 construct: expressed in transfected cells
Protocol: HEK293 cells stably expressing rat transient receptor potential vanilloid 1 (TRPV1) were cultured in Dulbecco’s Modified Eagle Medium (DMEM) containing 10% FBS under selection with hygromycin B (100 μg/mL), generated as previously described [16]. Cells were grown in an incubator at 37 °C with 5% CO2 and passaged every 3–4 days (at 70%–80% confluency) using TrypLE Express (Thermo Fisher Scientific, Scoresby, VIC, Australia).
HEK cells stably expressing rTRPV1 were plated 48 h before the assay on 384-well black-walled imaging plates coated with poly D-lysine (ViewPlate-384, Perkin Elmer, Victoria, Australia) at a density of 10,000–15,000 cells/well and loaded with Calcium 4 no-wash dye (Molecular Devices) diluted in PSS and incubated for 30 min at 37 °C. […] Changes in fluorescence were assessed using the FLIPR^TETRA (excitation 470–495 nm, emission 515–575 nm) every 1 s for 300 s after the addition of compounds. Fluorescence responses were quantified by the maximum increase in fluorescence calculated using ScreenWorks 3.2.0.14.
Data were plotted and analysed using GraphPad Prism, version 8.2.0. For concentration–response curves, a four-parameter Hill equation with variable Hill coefficient was fitted to the data. Data are presented as the mean ± SEM.

[4] = target: T1, hNaV1.7/β1; test: Voltage dependence of activation at hNaV1.7 (conductance-voltage curves, patch-clamp); type: cell-based; settings: 1 μM, 5 min incubation; holding −90 mV, 500 ms steps −110 to +55 mV in 5 mV increments; Boltzmann fit; n = 3–6 cells per data point
Protocol: as §1, §2, §3

[5] = target: T1, hNaV1.7/β1; test: Time constant of fast inactivation (τ) at hNaV1.7 (patch-clamp); type: cell-based; settings: holding −90 mV, 50 ms pulse to −20 mV, n = 4 cells per data point
Protocol: as §1, §4, §3

T1 sequence (Q07699 19-218): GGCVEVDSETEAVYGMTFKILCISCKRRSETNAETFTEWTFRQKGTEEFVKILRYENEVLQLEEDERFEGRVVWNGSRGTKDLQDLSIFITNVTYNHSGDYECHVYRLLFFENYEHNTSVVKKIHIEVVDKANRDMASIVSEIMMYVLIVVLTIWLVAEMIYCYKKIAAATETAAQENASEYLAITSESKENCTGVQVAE
T1 sequence (Q15858 whole entry): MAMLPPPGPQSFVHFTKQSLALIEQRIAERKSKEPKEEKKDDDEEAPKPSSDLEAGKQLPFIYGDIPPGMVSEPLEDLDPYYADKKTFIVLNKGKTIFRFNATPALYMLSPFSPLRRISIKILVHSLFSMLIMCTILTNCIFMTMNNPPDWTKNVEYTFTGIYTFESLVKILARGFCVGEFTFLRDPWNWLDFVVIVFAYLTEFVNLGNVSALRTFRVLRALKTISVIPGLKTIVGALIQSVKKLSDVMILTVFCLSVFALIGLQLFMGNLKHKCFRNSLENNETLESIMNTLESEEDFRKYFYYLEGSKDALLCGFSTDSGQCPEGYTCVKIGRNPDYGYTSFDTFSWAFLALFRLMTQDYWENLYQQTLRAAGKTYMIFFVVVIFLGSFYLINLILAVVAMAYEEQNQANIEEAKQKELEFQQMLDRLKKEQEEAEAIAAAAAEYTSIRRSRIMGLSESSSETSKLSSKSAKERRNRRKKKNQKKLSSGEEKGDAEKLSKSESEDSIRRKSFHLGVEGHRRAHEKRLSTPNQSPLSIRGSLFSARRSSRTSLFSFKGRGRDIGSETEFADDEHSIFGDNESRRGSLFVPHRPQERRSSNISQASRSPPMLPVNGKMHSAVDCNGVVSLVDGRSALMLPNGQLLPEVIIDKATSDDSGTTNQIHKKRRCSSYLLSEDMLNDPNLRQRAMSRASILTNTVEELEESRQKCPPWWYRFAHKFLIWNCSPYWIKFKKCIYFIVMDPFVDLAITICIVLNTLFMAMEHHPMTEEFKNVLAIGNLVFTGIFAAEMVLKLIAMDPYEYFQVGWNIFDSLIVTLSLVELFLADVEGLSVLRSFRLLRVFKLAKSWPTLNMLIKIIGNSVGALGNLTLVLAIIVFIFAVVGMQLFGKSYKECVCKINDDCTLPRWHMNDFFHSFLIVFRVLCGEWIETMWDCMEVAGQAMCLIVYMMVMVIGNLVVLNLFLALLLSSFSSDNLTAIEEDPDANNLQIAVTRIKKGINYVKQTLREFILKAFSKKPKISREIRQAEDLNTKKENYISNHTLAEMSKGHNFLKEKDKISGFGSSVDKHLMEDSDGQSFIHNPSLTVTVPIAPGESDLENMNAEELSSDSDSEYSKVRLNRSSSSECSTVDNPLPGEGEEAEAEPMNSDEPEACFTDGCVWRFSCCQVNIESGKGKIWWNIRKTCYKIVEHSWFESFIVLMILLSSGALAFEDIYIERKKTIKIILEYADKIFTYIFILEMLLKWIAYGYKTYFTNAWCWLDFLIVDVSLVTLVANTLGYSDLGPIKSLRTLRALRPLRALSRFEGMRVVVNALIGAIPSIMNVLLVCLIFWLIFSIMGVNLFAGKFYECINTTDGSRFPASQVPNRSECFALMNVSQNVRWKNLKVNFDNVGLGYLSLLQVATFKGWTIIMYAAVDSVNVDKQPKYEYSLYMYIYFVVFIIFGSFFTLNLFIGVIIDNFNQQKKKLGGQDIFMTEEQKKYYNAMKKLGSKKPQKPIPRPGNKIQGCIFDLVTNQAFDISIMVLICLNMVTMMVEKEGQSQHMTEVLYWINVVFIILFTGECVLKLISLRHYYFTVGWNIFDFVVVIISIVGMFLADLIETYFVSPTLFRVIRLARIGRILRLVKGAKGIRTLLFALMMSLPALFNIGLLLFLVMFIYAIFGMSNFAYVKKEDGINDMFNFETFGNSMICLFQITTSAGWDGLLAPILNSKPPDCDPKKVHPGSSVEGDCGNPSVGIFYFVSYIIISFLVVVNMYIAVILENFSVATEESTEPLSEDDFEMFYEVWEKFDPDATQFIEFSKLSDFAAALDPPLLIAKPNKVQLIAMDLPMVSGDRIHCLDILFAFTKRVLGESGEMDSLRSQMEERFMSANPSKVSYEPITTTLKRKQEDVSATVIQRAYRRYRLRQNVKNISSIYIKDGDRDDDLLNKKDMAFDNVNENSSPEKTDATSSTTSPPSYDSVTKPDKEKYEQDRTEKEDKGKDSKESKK
T2 sequence (O35433 whole entry): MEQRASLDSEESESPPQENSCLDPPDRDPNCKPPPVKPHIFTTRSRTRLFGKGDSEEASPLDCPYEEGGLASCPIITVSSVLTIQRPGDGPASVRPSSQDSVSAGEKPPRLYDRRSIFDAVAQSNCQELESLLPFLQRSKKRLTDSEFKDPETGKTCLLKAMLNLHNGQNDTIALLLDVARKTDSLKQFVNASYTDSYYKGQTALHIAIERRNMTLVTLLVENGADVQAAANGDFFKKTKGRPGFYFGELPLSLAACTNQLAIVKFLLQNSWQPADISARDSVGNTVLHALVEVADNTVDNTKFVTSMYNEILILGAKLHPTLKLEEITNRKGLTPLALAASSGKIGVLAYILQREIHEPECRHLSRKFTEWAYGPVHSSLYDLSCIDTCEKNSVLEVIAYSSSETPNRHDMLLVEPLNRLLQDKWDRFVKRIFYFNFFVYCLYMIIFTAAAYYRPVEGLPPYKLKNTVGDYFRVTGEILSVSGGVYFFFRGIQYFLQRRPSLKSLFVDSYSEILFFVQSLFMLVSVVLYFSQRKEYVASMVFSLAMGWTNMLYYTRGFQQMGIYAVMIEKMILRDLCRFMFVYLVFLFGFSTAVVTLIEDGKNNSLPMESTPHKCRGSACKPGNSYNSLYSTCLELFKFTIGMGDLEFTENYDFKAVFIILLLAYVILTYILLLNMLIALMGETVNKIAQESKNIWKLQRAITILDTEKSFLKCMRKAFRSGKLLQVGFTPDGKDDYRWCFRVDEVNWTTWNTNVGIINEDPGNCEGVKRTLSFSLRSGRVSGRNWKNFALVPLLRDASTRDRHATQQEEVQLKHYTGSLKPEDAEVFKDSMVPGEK

## CSCC[C@@H]1NC(=O)[C@H](CCCCN)NC(=O)[C@@H]2CSSC[C@@H]3NC(=O)CNC(=O)CNC(=O)[C@H](CC(C)C)NC(=O)[C@H](Cc4ccccc4)NC(=O)[C@H](Cc4ccc(O)cc4)NC(=O)[C@H](CCCNC(=N)N)NC(=O)[C@@H](NC(=O)CNC(=O)CN)CSSC[C@H](NC(=O)[C@H](CSSC[C@@H](C(=O)N[C@@H](C)C(=O)N[C@@H](Cc4c[nH]c5ccccc45)C(=O)N[C@@H](CC(=O)O)C(=O)NCC(=O)N[C@H](C(=O)N[C@@H](Cc4ccccc4)C(N)=O)[C@@H](C)O)NC(=O)[C@H](Cc4ccc(O)cc4)NC(=O)[C@H](CC(N)=O)NC(=O)[C@H](CC(C)C)NC(=O)CNC1=O)NC(=O)[C@H](CC(=O)O)NC(=O)[C@H](CO)NC(=O)[C@H](Cc1c[nH]cn1)NC(=O)[C@H](CCC(=O)O)NC(=O)[C@H](CO)NC3=O)C(=O)N[C@@H](CCC(=O)O)C(=O)N[C@@H](Cc1c[nH]cn1)C(=O)N[C@@H](CC(C)C)C(=O)N[C@@H](CCCNC(=N)N)C(=O)N2 [Pme1a] (H-GGCRYFLGGCSEHSDCCEHLRCKMGLNYCAWDGTF-NH2; disulfide 3-17, 10-22, 16-29 (inferred); N-terminus assumed)
[1]
  inhibition of peak current at NaV1.8: 21 ± 2%
[2]; 5 min incubation per concentration, QPatch-16, holding −90 mV, 50 ms pulse to −20 mV every 20 s, 0.1% BSA, mean ± SEM, n = 3–6 cells per data point, read-out: IC50 (inhibition of NaV1.7 peak current)
  IC50: 0.334 ± 0.114 µM
[3]; rTRPV1-HEK293, Calcium 4 dye, up to 30 μM, n = 3–5 wells per data point
  activity on TRPV1: no activity
[4]
  shift of V1/2 of voltage dependence of activation (Δ): +11.6 mV

## CSCC[C@@H]1NC(=O)[C@H](Cc2ccccc2)NC(=O)[C@H](CCCCN)NC(=O)[C@H]([C@@H](C)O)NC(=O)[C@@H](NC(=O)CN)CSSC[C@@H]2NC(=O)[C@@H]3CSSC[C@@H](C(=O)NCC(=O)N[C@@H](Cc4c[nH]c5ccccc45)C(=O)N[C@@H](CC(=O)O)C(=O)NCC(=O)N[C@H](C(=O)N[C@@H](Cc4ccccc4)C(N)=O)[C@@H](C)O)NC(=O)[C@H](Cc4c[nH]c5ccccc45)NC(=O)[C@H](CCCCN)NC(=O)[C@H](Cc4ccc(O)cc4)NC(=O)[C@H](CCCCN)NC(=O)[C@H](Cc4ccc(O)cc4)NC(=O)[C@H](CSSC[C@H](NC(=O)[C@H](CO)NC(=O)CNC1=O)C(=O)N[C@@H](CCCCN)C(=O)N[C@@H]([C@@H](C)O)C(=O)N[C@@H](CC(=O)O)C(=O)N[C@@H](C)C(=O)N[C@@H](CC(=O)O)C(=O)N3)NC(=O)[C@H](CCC(=O)O)NC(=O)[C@H](CC(C)C)NC(=O)[C@H](Cc1c[nH]cn1)NC(=O)[C@H](CCC(=O)O)NC2=O [Pme2a] (H-GCTKFMGSCKTDADCCEHLECYKYKWCGWDGTF-NH2; disulfide 2-16, 9-21, 15-27 (inferred); N-terminus assumed)
[1]
  inhibition of peak current at NaV1.8: 22 ± 4%
[2]; abstract, QPatch-16, holding −90 mV, 50 ms pulse to −20 mV, read-out: EC50 as given in abstract: delays fast inactivation and inhibits NaV1.7 peak current
  EC50: > 10 µM
[2]; authors' summary in discussion
  pharmacology at NaV1.7 (activator / inhibitor): NaV1.7 channel activator
[3]; rTRPV1-HEK293, data not shown, concentration not given
  activity at TRPV1: no activity
[5]; 5 min incubation, τ from single exponential fit, read-out: estimated EC50 (delay of fast inactivation)
  EC50: > 10 µM
[5]
  effect on fast inactivation: concentration-dependently delaying-fast inactivation; also recorded: concentration-dependently increases the time constant of fast inactivation (τ)

## CSCC[C@@H]1NC(=O)[C@H](Cc2ccccc2)NC(=O)[C@H](CCCCN)NC(=O)[C@H]([C@@H](C)O)NC(=O)[C@@H](NC(=O)CN)CSSC[C@@H]2NC(=O)[C@@H]3CSSC[C@@H](C(=O)NCC(=O)N[C@@H](Cc4c[nH]c5ccccc45)C(=O)N[C@@H](CC(=O)O)C(=O)NCC(=O)N[C@H](C(=O)N[C@@H](Cc4ccccc4)C(N)=O)[C@@H](C)O)NC(=O)[C@H](Cc4c[nH]c5ccccc45)NC(=O)[C@H](CCCCN)NC(=O)[C@H](Cc4ccc(O)cc4)NC(=O)[C@H](CCCCN)NC(=O)[C@H](Cc4ccc(O)cc4)NC(=O)[C@H](CCCCN)NC(=O)[C@H](CSSC[C@H](NC(=O)[C@H](CO)NC(=O)CNC1=O)C(=O)N[C@@H](CCCCN)C(=O)N[C@@H]([C@@H](C)O)C(=O)N[C@@H](CC(=O)O)C(=O)N[C@@H](C)C(=O)N[C@@H](CC(=O)O)C(=O)N3)NC(=O)[C@H](CCC(=O)O)NC(=O)[C@H](CC(C)C)NC(=O)[C@H](Cc1c[nH]cn1)NC(=O)[C@H](CCC(=O)O)NC2=O [[+22K]Pme2a] (H-GCTKFMGSCKTDADCCEHLECKYKYKWCGWDGTF-NH2; disulfide 2-16, 9-21, 15-28 (inferred); N-terminus assumed)
[5]
  effect on fast inactivation: removed the effect of the native peptide on fast inactivation; also recorded: without the delay in fast activation seen with the native peptide

Reference: PMC7167818, “Addition of K22 Converts Spider Venom Peptide Pme2a from an Activator to an Inhibitor of NaV1.7” (Biomedicines, 2020)
